Assays:
[1] = tested on: HT-29 cancer cells; test: MTT cytotoxicity assay on HT-29 colon cells; type: cell-based, human; settings: for IC50 / maximal inhibition HT-29: three days incubation
Experimental: (§1) Cytotoxicity was measured on HT-29 colon and OVCAR ovarian cells obtained from ATCC Inc. using the methylthiazolyldiphenyl-tetrazolium bromide (MTT) assay. Cells (0.6×106) in medium (contains: 1% penicillin/streptomycin antibiotics; 1% L-glutamine; 10% fetal bovine serum (FBS) and 88% medium RPMI-1640, all purchased from Biological Industries Inc.) were seeded into a 96-well plate and allowed to attach for a day. The cells were consequently treated with the reagent tested at 10 different concentrations. Solutions/dispersions of the reagents were prepared either by dissolving 8 mg of the nonformulated reagent in 200 μL of THF or by dispersing 8 mg of formulated reagent in 200 μL of medium, with further diluting to obtain the different concentrations. A total of 20 μL of the resulting system were diluted with 180 μL of medium. Consequently, 10 μL of each final system were added to each well already containing 200 μL of the above solution of cells in the medium to give final concentration of up to 200 mg/L. Control wells were treated with similar amounts of THF or medium. After a standard of 3 days incubation at 37° C. in 5% CO2 atmosphere, MTT (0.1 mg in 20 μL) was added and the cells were incubated for additional 3 hours. The MTT solution was then removed, and the cells were dissolved in 200 μL isopropanol. The absorbance at 550 nm was measured by a Bio-Tek EL-800 microplate reader spectrophotometer. Each measurement was repeated at least 3×3 times, namely, three repeats per plate, all repeated at least 3 times on different days (9 repeats altogether). IC50 values were determined by a non-linear regression of a variable slope (four parameters) model.

[2] = tested on: OVCAR-3; test: MTT cytotoxicity assay on OVCAR-3 cells; type: cell-based; settings: administered without formulations, three days incubation
Experimental: as §1

[3] = tested on: multi-drug-resistant (MDR) cells HU-2; test: Cytotoxicity toward multi-drug-resistant HU-2 cells; type: cell-based; settings: nanoformulated complex
[4] = Hydrolysis measurements by 1H NMR / stability in water; type: physicochemical; settings: 10% D2O added to [D8]THF solution
Experimental: Comparative hydrolysis measurements by ^1H NMR were carried by monitoring the integration of selected signals with time following addition of 10% D2O to [D8]THF solution of the complexes. The t1/2 value for isopropoxo hydrolysis for compound 4 was ca. 100 hours, markedly higher than the value previously reported for analogous complexes of two labile ligands obtained under similar conditions (ca. 5 hours).
NMR data were recorded using AMX-400 or AMX-500 MHz Bruker spectrometer. X-ray diffraction data were obtained with a Bruker SMART APEX CCD diffractometer, running the SMART software package. After collection, the raw data frames were integrated by the SAINT software package. The structures were solved and refined using the SHELXTL software package. Hydrolysis studies by NMR were performed using a solution of the complex in [D^8]THF and adding 10% D2O. The results were verified by including p-dinitrobenzene as an internal standard.

[5] = Particle size by dynamic light scattering; type: physicochemical; settings: nanoformulated complex, 0.2 wt % dispersion in water
Experimental: The dry powder obtained at the end of the freeze-drying process was dispersed at 0.2% in distilled water. The sample was manually shaken for 15 seconds. Particle size distribution by volume was measured at room temperature by dynamic light scattering using a Nano-ZS Zetasizer (Malvern, UK). A 633 nm wavelength laser beam was used to illuminate the sample and the light scattering was detected at 173° angle by the Non-Invasive Back-Scatter (NIBS) technology. The advantages of the backscatter detection are: (a) Ability to measure particle size at high concentration; (b) Elimination of dust and impurity effect. Size measurements of the dispersion were performed in triplicate.

[6] = tested on: OVCAR cancer cells; test: MTT cytotoxicity assay on OVCAR ovarian cells; type: cell-based
Experimental: as §1, with “After a standard of 3 days incubation at 37° C. in 5% CO2 atmosphere, MTT (0.1 mg in 20 μL) was added and the cells were incubated for additional 3 hours. The MTT solution was then removed, and the cells were dissolved in 200 μL isopropanol.” left out, “Each measurement was repeated at least 3×3 times, namely, three repeats per plate, all repeated at least 3 times on different days (9 repeats altogether).” left out

[7] = administered without formulations

Structure (SMILES) | IC50 [1, 7] [µM] | maximal inhibition HT-29 [1, 7] [%] | IC50 [2] [µM] | maximal inhibition OVCAR-3 [2] [%] | IC50 [3] [µM] | IC50 ([1]; nanoformulated complex) [µM] | cytotoxicity when measured/administered directly on HT-29 ([1]; non-formulated) | hydrolysis observed by 1H NMR [4] | Mean particle size [5] [nm] | IC50 ([6]; nanoformulated complex, three days incubation) [µM] | cytotoxicity when measured directly on OVCAR-1 ([6]; non-formulated, OVCAR-1 cells as printed)
[O]=[V]12[O]c3ccccc3CNCCN(Cc3ccccc3[O]1)Cc1ccccc1[O]2 [compound 5] | 1.9 ± 0.6 | 97 | 0.3 ± 0.1 | 88 | – | – | – | – | – | – | –
N.N.[Cl][Pt][Cl] [Cis-platin, reference compound] | 12.2 ± 2.3 | 90 | 8.8 ± 2.1 | 91 | – | – | – | – | – | – | –
Cc1cc(C)c2c(c1)CN1Cc3cc(C)cc(C)c3[O][V](=[O])([O]2)[O]c2c(C)cc(C)cc2C1 [compound 50] | 4.6 ± 0.8 | 96 | 2.8 ± 0.5 | 87 | – | – | – | – | – | – | –
CC(C)(C)Oc1ccc2c(c1)CNCCN1Cc3cc(OC(C)(C)C)ccc3[O][V](=[O])([O]2)[O]c2ccc(OC(C)(C)C)cc2C1 [compound 9] | 2 ± 0.4 | 99 | 1.3 | 84 | – | – | – | – | – | – | –
[O]=[V]12[O]c3ccc(Cl)cc3CNCCN(Cc3cc(Cl)ccc3[O]1)Cc1cc(Cl)ccc1[O]2 [compound 7] | 3.2 | 95 | – | – | – | – | – | – | – | – | –
[O]=[V]1[O]c2ccccc2CNCCNCc2ccccc2[O]1 [compound 63] | 5.8 ± 0.3 | 97 | 4.3 ± 1.4 | 87 | – | – | – | – | – | – | –
Cc1ccc2c(c1)CNCCN1Cc3cc(C)ccc3[O][V](=[O])([O]2)[O]c2ccc(C)cc2C1 [compound 6] | 2.5 ± 0.7 | 98 | 0.3 ± 0.1 | 90 | – | – | – | – | – | – | –
Clc1cc(Cl)c2c(c1)CN1CCN3Cc4cc(Cl)cc(Cl)c4[O][Ti]([O]2)([O]c2c(Cl)cc(Cl)cc2C1)[O]c1c(Cl)cc(Cl)cc1C3 [compound 3] | – | – | – | – | 0.8 ± 1 | 12 ± 2 | inactive | no substantial hydrolysis was observed for over a week | 5.3 ± 0.3 | 14 ± 4 | inactive
COc1ccc2c(c1)CNCCN1Cc3cc(OC)ccc3[O][V](=[O])([O]2)[O]c2ccc(OC)cc2C1 [compound 8] | 0.7 ± 0.1 | 94 | 0.6 ± 0.2 | 85 | – | – | – | – | – | – | –
